Laboratory results from ChEMBL document CHEMBL1138082, “Structural requirements for the substrates of the H+/peptide cotransporter PEPT2 determined by three-dimensional quantitative structure-activity relationship analysis” (J Med Chem, 2006).
Residues, ends and D or L forms follow the SMILES beside them.

How the values were obtained:
[1] = target: T1, Solute carrier family 15 member 2 (Rattus norvegicus, UniProt Q63424); assay: Displacement of [14C]Gly-Sar from rat PEPT2 in SKPT0193 C1.2 cells; format: cell-based
T1 sequence (Q63424 whole entry): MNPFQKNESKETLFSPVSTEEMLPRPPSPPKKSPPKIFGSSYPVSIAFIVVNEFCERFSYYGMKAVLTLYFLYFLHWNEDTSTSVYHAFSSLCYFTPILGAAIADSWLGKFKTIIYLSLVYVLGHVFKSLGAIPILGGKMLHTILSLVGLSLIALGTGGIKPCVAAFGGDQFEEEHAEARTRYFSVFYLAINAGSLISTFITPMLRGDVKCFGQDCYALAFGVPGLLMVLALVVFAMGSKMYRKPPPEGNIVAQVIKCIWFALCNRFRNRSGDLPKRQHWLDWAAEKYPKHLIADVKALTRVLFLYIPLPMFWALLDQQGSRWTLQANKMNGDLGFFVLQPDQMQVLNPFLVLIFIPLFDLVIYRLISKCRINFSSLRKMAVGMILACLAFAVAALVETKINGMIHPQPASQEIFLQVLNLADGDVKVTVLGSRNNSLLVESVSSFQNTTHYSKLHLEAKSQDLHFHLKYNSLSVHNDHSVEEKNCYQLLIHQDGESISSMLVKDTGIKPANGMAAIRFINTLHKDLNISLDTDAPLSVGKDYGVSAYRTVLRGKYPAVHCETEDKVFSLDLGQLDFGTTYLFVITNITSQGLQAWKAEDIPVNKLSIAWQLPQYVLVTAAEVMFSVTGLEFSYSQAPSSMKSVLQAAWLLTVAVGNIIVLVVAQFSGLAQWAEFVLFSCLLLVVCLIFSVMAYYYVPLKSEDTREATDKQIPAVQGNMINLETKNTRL

[2] = target: T2, Solute carrier family 15 member 1 (Homo sapiens, UniProt P46059); assay: Displacement of [14C]Gly-Sar from human PEPT1 in Caco-2 cells; format: cell-based
T2 sequence (P46059 whole entry): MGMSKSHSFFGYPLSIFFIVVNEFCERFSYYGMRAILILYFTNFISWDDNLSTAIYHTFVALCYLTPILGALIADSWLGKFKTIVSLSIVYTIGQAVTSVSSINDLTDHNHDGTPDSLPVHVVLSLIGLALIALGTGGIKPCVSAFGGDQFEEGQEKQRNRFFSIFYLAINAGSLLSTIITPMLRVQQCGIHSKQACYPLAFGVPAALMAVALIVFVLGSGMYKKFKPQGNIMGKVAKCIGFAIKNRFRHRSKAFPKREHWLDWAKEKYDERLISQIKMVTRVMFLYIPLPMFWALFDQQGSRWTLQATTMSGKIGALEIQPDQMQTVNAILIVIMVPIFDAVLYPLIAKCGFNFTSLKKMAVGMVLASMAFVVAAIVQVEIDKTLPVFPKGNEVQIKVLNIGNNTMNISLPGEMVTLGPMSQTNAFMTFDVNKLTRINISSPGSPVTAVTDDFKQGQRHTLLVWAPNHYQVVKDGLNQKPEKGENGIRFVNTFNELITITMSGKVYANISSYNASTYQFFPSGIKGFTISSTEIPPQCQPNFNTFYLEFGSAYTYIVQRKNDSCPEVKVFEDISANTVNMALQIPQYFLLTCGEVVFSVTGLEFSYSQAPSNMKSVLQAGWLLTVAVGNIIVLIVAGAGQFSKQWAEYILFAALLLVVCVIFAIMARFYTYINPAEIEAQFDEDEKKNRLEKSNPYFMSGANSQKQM

[3] = Selectivity for rat PEPT2 over human PEPT1

Structure (SMILES) | Ki [1] [µM] | Ki [2] [µM] | log selectivity ratio [3]
C[C@H](NC(=O)[C@H](Cc1ccccc1)NC(=O)c1ccccc1)C(=O)O | 3.7 | 20 | 0.7
CC(C)C[C@H](N)C(=O)N[C@@H](C)C(=O)N[C@@H](CCCNC(=N)N)C(=O)O (H-Leu-Ala-Arg-OH) | 1200 | 100 | 
CC(C)C[C@H](N)C(=O)N[C@@H](C)C(=O)N[C@@H](CCCN=C(N)N)C(=O)O (H-Leu-Ala-Arg-OH) |  |  | -1.1
C[C@H](NC(=O)[C@@H](N)Cc1c[nH]c2ccccc12)C(=O)O (H-Trp-Ala-OH) | 4 |  | 1.7
